Laboratory results taken from patent US20110002843A1, “METHOD OF DETECTING MYOCARDIAL DYSFUNCTION IN PATIENTS HAVING A HISTORY OF ASTHMA OR BRONCHOSPASM” (priority 2005, published 2011).

Legend:
A2A adenosine receptor [1] = target: T1, A2A adenosine receptor (Cavia porcellus, UniProt P46616); parameters: a Langendorff guinea pig heart preparation; from tissue; host or cells: isolated perfused guinea pig heart (Langendorff), coronary vasculature; settings: heart paced at 260 beats/min; data of U.S. Pat. No. 5,278,150; read-out: EC50—CF (A2A); cited from earlier work
T1 sequence (P46616 whole entry, the tested form may be a part): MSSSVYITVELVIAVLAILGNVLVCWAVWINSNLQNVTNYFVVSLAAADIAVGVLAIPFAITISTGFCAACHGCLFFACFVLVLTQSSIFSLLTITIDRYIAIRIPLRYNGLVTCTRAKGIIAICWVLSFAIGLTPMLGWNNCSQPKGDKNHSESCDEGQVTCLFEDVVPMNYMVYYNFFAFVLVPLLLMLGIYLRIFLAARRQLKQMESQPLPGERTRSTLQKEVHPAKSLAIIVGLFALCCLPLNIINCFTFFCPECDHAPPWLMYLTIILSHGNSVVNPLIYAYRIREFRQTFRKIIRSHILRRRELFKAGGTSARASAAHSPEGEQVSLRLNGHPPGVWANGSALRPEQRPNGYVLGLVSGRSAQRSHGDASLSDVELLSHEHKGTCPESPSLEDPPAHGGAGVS

A1 adenosine receptor = target: T2, A1 adenosine receptor (Cavia porcellus, UniProt P47745); parameters: a Langendorff guinea pig heart preparation; from tissue; host or cells: isolated perfused guinea pig heart (Langendorff); settings: heart paced at 260 beats/min; data of U.S. Pat. No. 5,278,150; read-out: EC50—SQPR (A1); cited from earlier work
T2 sequence (P47745 1-326): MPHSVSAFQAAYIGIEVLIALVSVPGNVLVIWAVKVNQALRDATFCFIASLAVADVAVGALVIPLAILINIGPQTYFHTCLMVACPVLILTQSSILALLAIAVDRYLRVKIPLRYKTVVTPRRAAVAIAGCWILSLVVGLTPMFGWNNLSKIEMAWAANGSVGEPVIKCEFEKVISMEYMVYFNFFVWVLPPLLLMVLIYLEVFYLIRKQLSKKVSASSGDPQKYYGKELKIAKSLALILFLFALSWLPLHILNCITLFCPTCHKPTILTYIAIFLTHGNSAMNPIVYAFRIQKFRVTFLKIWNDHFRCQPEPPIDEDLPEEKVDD

A2A adenosine receptor [2] = target: T1, A2A adenosine receptor; test: Langendorff guinea pig heart preparation, coronary vasodilation (coronary flow); settings: quotient EC50-SQPR / EC50-CF
Procedure: The A1/A2A selectivity in Table 1 was calculated as the quotient of the EC50 of stimulus-QRS prolongation divided by the EC50 of coronary vasodilation.

[3] = Dose-selection study of coronary hyperemia (CBFV by Doppler guide wire) in non-asthmatic patients at cardiac catheterization; settings: intracoronary bolus injections before binodenoson
Procedure: Coronary blood flow velocity reserve (CBFVR) was established by intracoronary (IC) bolus injections of adenosine just prior to administration of binodenoson to allow a direct comparison of the magnitude of responses.
Patients presenting for cardiac catheterization were screened for eligibility and provided informed consent prior to sedation. Final eligibility was determined by the investigator during diagnostic catheterization.
Following completion of the diagnostic catheterization procedure and confirmation of all eligibility criteria, the Doppler guide wire was introduced into an accessible coronary artery and manipulated until a stable signal was obtained.
Drug administration: All usual catheterization procedural medications including IC nitroglycerin, heparin, anxiolytics and analgesics, were allowed. […] Binodenoson doses were then introduced into a peripheral vein via an indwelling catheter.
Measurements: Coronary blood flow velocity (CBFV) was measured as continuous pulsatile (systolic and diastolic) velocity (cm/sec) with the Doppler guide wire introduced via a guiding catheter. HR was derived from the ECG signal. SBP and diastolic blood pressure (DBP) were recorded directly from the catheter sheath. For each IC adenosine injection, CBFVR was calculated by dividing the peak post-injection CBFV value by the respective baseline CBFV value. Each patient's maximal calculated CBFVR was used as a benchmark to which CBFV responses to binodenoson were compared. For each binodenoson dose, baseline CBFV (post-IC adenosine), peak CBFV, time following dose start time to achieve peak CBFV and percents of CBFVR (calculated as the ratio of CBFV change from baseline following binodenoson administration vs CBFVR) at each point were calculated. Rate pressure product (RPP) and coronary vascular resistance (CVR) were derived at each time point (see formulas in Table 10). […] Vital signs were measured again approximately 3 to 4 hours after dosing or prior to hospital discharge. Patients returned for a follow-up visit 2 to 4 days following catheterization that included vital signs, an abbreviated physical examination, a 12-lead ECG, blood chemistry and hematology assessments and an assessment of any late-emerging adverse events.
Adverse events were monitored throughout the study.
Statistical analyses: All pharmacodynamic and safety data were analyzed using the intent-to-treat (ITT) population, which included all patients who received any amount of study drug. A paired t test was used to assess the significance of within-treatment differences (peak vs baseline) in CBFV, vital signs and calculated CVR and RPP; repeated comparisons were corrected using the Bonferroni-Holm method. The statistical significance of differences among treatment groups was evaluated using an analysis of variance (ANOVA) model that included treatment and investigator interactions.

Cc1cccc(C=NNc2nc(N)c3ncn(C4OC(CO)C(O)C4O)c3n2)c1 (centres unmarked) [L, 2-[2-(3-Methylbenzylidine)hydrazino]adenosine]
EC50 (A2A adenosine receptor [1]): 0.0044 µM
EC50 (A1 adenosine receptor): 17 µM
A1/A2A Selectivity (A2A adenosine receptor [2]): 3,800

Nc1nc(N/N=C/C2CC=CCC2)nc2c1ncn2[C@@H]1O[C@H](CO)[C@@H](O)[C@H]1O (stereo in doubt) [B, 2-{2-[(Cyclohex-3-enyl)methylene]hydrazino}adenosine]
EC50 (A1 adenosine receptor): 13.8 µM

Nc1nc(N)c2ncn([C@@H]3O[C@H](CO)[C@@H](O)[C@H]3O)c2n1 [Compare B, 2-Amino-adenosine, reference compound]
EC50 (A2A adenosine receptor [1]): 0.22 µM
A1/A2A Selectivity (A2A adenosine receptor [2]): 50

NNc1nc(N)c2ncn([C@@H]3O[C@H](CO)[C@@H](O)[C@H]3O)c2n1 [Compare C, 2-Hydrazino-adenosine, reference compound]
A1/A2A Selectivity (A2A adenosine receptor [2]): 250

CC(C)CCC=NNc1nc(N)c2ncn([C@@H]3O[C@H](CO)[C@@H](O)[C@H]3O)c2n1 [C, 2-[2-(4-methylpentylidene)hydrazino]adenosine]
A1/A2A Selectivity (A2A adenosine receptor [2]): 44,700

CCCCCC=NNc1nc(N)c2ncn([C@@H]3O[C@H](CO)[C@@H](O)[C@H]3O)c2n1 [E, 2-[2-(hexylidene)hydrazino]adenosine]
A1/A2A Selectivity (A2A adenosine receptor [2]): 38,000

Nc1nc(NN=Cc2ccc(F)cc2)nc2c1ncn2[C@@H]1O[C@H](CO)[C@@H](O)[C@H]1O [J, 2-[2-(4-Fluorobenzylidene) hydrazino]adenosine]
A1/A2A Selectivity (A2A adenosine receptor [2]): 5,100

Nc1nc(N/N=C/c2ccccc2)nc2c1ncn2[C@@H]1O[C@H](CO)[C@@H](O)[C@H]1O (stereo in doubt) [I, 2-[2-(Benzylidene) hydrazino]adenosine]
EC50 (A2A adenosine receptor [1]): 0.00229 µM
EC50 (A1 adenosine receptor): 83.2 µM
A1/A2A Selectivity (A2A adenosine receptor [2]): 36,300

Cc1ccc(C=NNc2nc(N)c3ncn(C4OC(CO)C(O)C4O)c3n2)cc1 (centres unmarked) [K, 2-[2-(4-Methylbenzylidine) hydrazino]adenosine]
EC50 (A1 adenosine receptor): 39.8 µM

Nc1ncnc2c1ncn2[C@@H]1O[C@H](CO)[C@@H](O)[C@H]1O [Compare A, Adenosine, reference compound]
effect on CBFV [3]: transient increases
effects on SBP, DBP, or HR [3]: no consistent effects

CCCCC(CC)CC=NNc1nc(N)c2ncn([C@@H]3O[C@H](CO)[C@@H](O)[C@H]3O)c2n1 (some centres unmarked) [D, 2-[2-(3-ethylheptylidene)hydrazino]adenosine]
EC50 (A1 adenosine receptor): 9.77 µM

CCCC(CCC)CCC=NNc1nc(N)c2ncn([C@@H]3O[C@H](CO)[C@@H](O)[C@H]3O)c2n1 [G, 2-[2-(4-propylheptylidene)hydrazino]adenosine]
EC50 (A2A adenosine receptor [1]): 0.00178 µM
EC50 (A1 adenosine receptor): 66.1 µM
A1/A2A Selectivity (A2A adenosine receptor [2]): 37,200
